ChEMBL document CHEMBL5338785, “Development of Aromatic-Linked Diamino Acid Antimicrobial Peptide Mimics with Low Hemolytic Toxicity and Excellent Activity against Methicillin-Resistant Staphylococcus aureus (MRSA)” (J Med Chem, 2023)

Tests used:
[1] = Hemolytic activity in sheep RBC assessed as hemolysis incubated for 1 hr by microplate reader method; assay type: toxicity, cell-based, Ovis aries, Erythrocyte; conditions: sheep red blood cells
Escherichia coli = experiment: Antibacterial activity against Escherichia coli assessed as bacterial growth inhibition incubated for 18 hrs by CLSI protocol based Mueller-Hinton broth assay; assay type: functional; conditions: Escherichia coli, 18 h, read-out: MIC
[2] = Selectivity index, ratio of HC50 for hemolytic activity in sheep RBC to MIC for antibacterial activity against methicillin-resistant Staphylococcus aureus assessed as bacterial growth inhibition; assay type: toxicity; conditions: sheep red blood cells
Staphylococcus aureus [3] = experiment: Antibacterial activity against methicillin-resistant Staphylococcus aureus assessed as bacterial growth inhibition incubated for 18 hrs by CLSI protocol based Mueller-Hinton broth assay; assay type: functional; conditions: Staphylococcus aureus, read-out: MIC
Staphylococcus aureus [4] = experiment: Antibacterial activity against methicillin-resistant Staphylococcus aureus clinical isolates assessed as bacterial growth inhibition incubated for 18 hrs by CLSI protocol based Mueller-Hinton broth assay; assay type: functional
Enterococcus faecalis = experiment: Antibacterial activity against Enterococcus faecalis assessed as bacterial growth inhibition incubated for 18 hrs by CLSI protocol based Mueller-Hinton broth assay; assay type: functional; conditions: Enterococcus faecalis, 18 h, read-out: MIC
[5] = test system: Stenotrophomonas maltophilia; experiment: Antibacterial activity against Stenotrophomonas maltophilia assessed as bacterial growth inhibition incubated for 18 hrs by CLSI protocol based Mueller-Hinton broth assay; assay type: functional; conditions: Stenotrophomonas maltophilia, read-out: MIC

Row | SMILES | HC50 at 1 h [1] [µg/mL] | MIC (Escherichia coli) [µg/mL] | selectivity ratio [2] | MIC (Staphylococcus aureus [3]) [µg/mL] | MIC (Staphylococcus aureus [4]) [µg/mL] | MIC (Enterococcus faecalis) [µg/mL] | MIC [5] [µg/mL]
1 | CCCCCCN(CCCOc1cc2ccccc2cc1OCCCN(CCCCCC)C(=O)[C@@H](N)CCCCN)C(=O)[C@@H](N)CCCCN.Cl.Cl.Cl.Cl | > 1000 | 8 | > 1000 | 1 | 0.5 | 1 | 4
2 | CCCCCCCN(CCCOc1cccc(OCCCN(CCCCCCC)C(=O)[C@@H](N)CCCCN)c1)C(=O)[C@@H](N)CCCCN.Cl.Cl.Cl.Cl | 814 | 2 | 814 | 1 | 0.5 | 1 | 4
3 | CCCCCCN(CCCOc1ccccc1OCCCN(CCCCCC)C(=O)[C@@H](N)CCCCN)C(=O)[C@@H](N)CCCCN.Cl.Cl.Cl.Cl | > 1000 | 64 | > 125 | 8 | – | 8 | 32
4 | CCCCCCCCN(CCCOc1cccc(-c2cccc(OCCCN(CCCCCCCC)C(=O)[C@@H](N)CCCCN)c2)c1)C(=O)[C@@H](N)CCCCN.Cl.Cl.Cl.Cl | 15 | 2 | 7.5 | 2 | – | 1 | 2
5 | CCCCCCCCN(CCOc1ccc(OCCN(CCCCCCCC)C(=O)[C@@H](N)CCCCN)cc1)C(=O)[C@@H](N)CCCCN.Cl.Cl.Cl.Cl | 93 | 2 | 93 | 1 | – | 0.5 | 1
6 | CCCCCCCN(CCOc1ccc(OCCN(CCCCCCC)C(=O)[C@@H](N)CC(C)C)cc1)C(=O)[C@@H](N)CC(C)C.Cl.Cl | 36 | 2 | > 144 | < 0.25 | – | 0.5 | 1
7 | CCCCCCCCN(CCCOc1ccc2ccccc2c1-c1c(OCCCN(CCCCCCCC)C(=O)[C@@H](N)CCCCN)ccc2ccccc12)C(=O)[C@@H](N)CCCCN.Cl.Cl.Cl.Cl (stereo in doubt; 8o) | 100 | 8 | 25 | 4 | – | 2 | 4
8 | CCCCCCCN(CCOc1ccc(OCCN(CCCCCCC)C(=O)[C@@H](N)Cc2ccccc2)cc1)C(=O)[C@@H](N)Cc1ccccc1.Cl.Cl | 145 | > 128 | 72.5 | 2 | – | 1 | > 128
9 | CCCCCCCCN(CCCOc1ccc2c(OCCCN(CCCCCCCC)C(=O)[C@@H](N)CCCCN)cccc2c1)C(=O)[C@@H](N)CCCN.Cl.Cl.Cl.Cl | 14 | 1 | 14 | 1 | – | 1 | 1
10 | CCCCCCCCCCN(CCCOc1ccccc1-c1ccccc1OCCCN(CCCCCCCCCC)C(=O)[C@@H](N)CCCCN)C(=O)[C@@H](N)CCCCN.Cl.Cl.Cl.Cl | 40 | 8 | 5 | 8 | – | 8 | 8
11 | CCCCCCCCN(CCCOc1cc2ccccc2cc1OCCCN(CCCCCCCC)C(=O)[C@@H](N)CCCCN)C(=O)[C@@H](N)CCCCN.Cl.Cl.Cl.Cl | 68 | 2 | 68 | 1 | – | 1 | 1
12 | CCCCCCN(CCCOc1cccc(OCCCN(CCCCCC)C(=O)[C@@H](N)CCCCN)c1)C(=O)[C@@H](N)CCCCN.Cl.Cl.Cl.Cl | > 1000 | 16 | > 500 | 2 | 0.5 | 4 | 8
13 | CCCCCCN(CCOc1ccc(OCCN(CCCCCC)C(=O)[C@@H](N)CCCCN)cc1)C(=O)[C@@H](N)CCCCN.Cl.Cl.Cl.Cl | > 1000 | 64 | > 250 | 4 | – | 8 | 64
14 | CCCCCCN(CCCOc1ccc(-c2ccc(OCCCN(CCCCCC)C(=O)[C@@H](N)CCCCN)cc2)cc1)C(=O)[C@@H](N)CCCCN.Cl.Cl.Cl.Cl | 170 | 1 | 170 | 1 | – | 1 | 1
15 | CCCCCCCCN(CCCOc1ccccc1-c1ccccc1OCCCN(CCCCCCCC)C(=O)[C@@H](N)CCCCN)C(=O)[C@@H](N)CCCCN.Cl.Cl.Cl.Cl | 20 | 2 | 5 | 4 | – | 1 | 2
16 | CCCCCCCCCN(CCCOc1ccc(OCCCN(CCCCCCCCC)C(=O)[C@@H](N)CCCCN)cc1)C(=O)[C@@H](N)CCCCN.Cl.Cl.Cl.Cl | 11 | 2 | 10.5 | 2 | – | 1 | 1
